{
  "source": "patent US12083097B2",
  "about": "“Dual TNFR1 antagonists and TNER2 agonists for use in renal diseases” (SERODUS AS, priority 2020, dated 2024)",
  "key": {"[1]": {"test_system": "sTNFR2", "experiment": "Urine sTNFR2-to-creatinine in Px-UNx diabetic nephropathy rat model (ELISA)", "format": "in vivo", "details": "for urine concentration of sTNFR2 corrected for urine creatinine: Group 3, Px-UNx rats, 1 mg/kg", "procedure": "(§1) In the examples below, the sTNFR1 and sTNFR2 were measured using the commercial ELISA kits mouse/rat TNFRI/TNFRII Quantikine ELISA kits from R&D Systems according to the manufacturers protocol. However, for the purpose of measuring the sTNFR1 and sTNFR2 in humans for determining the relevant population groups according the present invention, the method described in Krolewski A. S. Diabetes Care 2015; 38:954-962 and Krolewski A. S. et al. Kidney Int. 2017 June; 91(6): 1300-1311 should be used.\n(§2) The pancreatectomy and uninephrectomy (see below) were conducted during a single surgical procedure (Secher T et al. Diabetes 2018 July; 67(Supplement 1)). Animals were operated in a randomized fashion during several consecutive surgical days. After an overnight full-fast with grids installed in the cages, the rats were pancreatectomized and uninephrectomized under isoflurane anesthesia. Pre-operative analgesia, antibiotics and fluid replacement were administered. Rats were not offered any food from one day before to one day after the surgery, From the second day after surgery they were fed ad libitum.\n(§3) In short, the 90% pancreatectomy is performed by removing the complete portion of the tail, body and a part of the pancreatic head by gentle abrasion with dental applicator. The major blood vessels to the stomach, spleen and gut are left intact so no other organs are compromised.\n(§4) Briefly, the right kidney is visited and the right ureter, kidney artery and kidney vein identified, and ligated with suture. Hereafter, the right kidney is removed.\n(§5) The sham operation is conducted to mimic the Px-UNx surgical procedure as best as possible. In brief, anesthesia and analgesia as well as opening and closuring the abdominal cavity are conducted as described above. After the abdominal cavity is opened, the pancreas and right kidney will be exposed, but left untouched and intact.\nRats were placed individually in metabolic cages for 16 h from the afternoon to the next morning. […] Total urine volume was recorded, and urine stored at −80° C. […]\nUrine samples were stored at −80° C. until analysis. sTNFR1 in rat urine was measured using commercial ELISA kits (R&D Systems mouse/rat TNFRI/TNFRII Quantikine ELISA kits) according to the manufacturer's instructions. Urine creatinine was measured using the CREP2 kit (Roche Diagnostics, Germany) on the Cobas™ C-501 autoanalyzer as per the manufacturer's instructions. Urinary albumin was measured using the Bethyl Laboratories rat albumin ELISA as per the manufacturer's instructions. The urinary albumin-to-creatinine ratio (UACR) was calculated. […]\nLikewise, the urine concentrations of sTNFR2 corrected for urine concentration of creatinine (pg/mg) were measured at baseline and after 4 and 7 weeks in group 3."}, "[2]": {"test_system": "sTNFR1", "experiment": "Urine sTNFR1-to-creatinine in Px-UNx diabetic nephropathy rat model (ELISA)", "format": "in vivo", "details": "for urine sTNFR1 corrected for creatinine, pooled data from Table 2: Treated Px-UNx rats (n = 33), doses 1, 3, 10 mg/kg pooled", "procedure": "Three active doses of 1, 3 and 10 mg/kg of compound 1 were administered orally once daily to 90% pancreatectomized and uninephrectomized rats over 49 days. A control group received placebo, and another control group underwent surgery to mimic the 90% pancreatectomy (Px) and uninephrectomy (UNx) without affecting the function of the kidney or the pancreas (Sham model). The Sham group also received placebo. The conclusion from the rat study was that compound 1 reduced the level of sTNFR1 in the urine over the full treatment period (see FIG. 2). […] The daily doses in the rat model may be converted into equivalent doses in humans (Guidance for Industry: Estimating the Maximum Safe Starting Dose in Initial Clinical Trials for Therapeutics in Adult Healthy Volunteers, 2005). Thus, the 1 mg/kg daily dose corresponds to a human daily dose of 0.16 mg/kg or 11.2 mg for a 70-kg patient. Likewise, a 3 mg/kg daily dose corresponds to a human daily dose of 0.48 mg/kg or 33.6 mg for a 70-kg patient. Finally, a 10 mg/kg daily dose corresponds to a human daily dose of 1.6 mg/kg or 112.7 mg for a 70-kg patient.\nas §1, §2, §3, §4, §5\nRats were placed individually in metabolic cages for 16 h from the afternoon to the next morning. Randomized subsets of the study groups were placed in the cages over several days (as there were fewer cages than rats). Rats were supplied with chow and water ad libitum. Cage enrichment (igloo, plastic stick to sit on) was included if possible. Total urine volume was recorded, and urine stored at −80° C. Large amounts were aliquoted in several 0.5 ml Eppendorph tubes prior to freezing.\nUrine samples were stored at −80° C. until analysis. sTNFR1 in rat urine was measured using commercial ELISA kits (R&D Systems mouse/rat TNFRI/TNFRII Quantikine ELISA kits) according to the manufacturer's instructions. Urine creatinine was measured using the CREP2 kit (Roche Diagnostics, Germany) on the Cobas™ C-501 autoanalyzer as per the manufacturer's instructions. Urinary albumin was measured using the Bethyl Laboratories rat albumin ELISA as per the manufacturer's instructions. […]"}, "[3]": {"test_system": "patients with diabetic nephropathy", "experiment": "Clinical Phase 2a study, ACR in patients with diabetic nephropathy", "format": "in vivo, human", "details": "for Average baseline ACR / Average ACR (4 weeks): doses 0.3 and 0.625 mg/kg daily pooled", "procedure": "A clinical Phase 2a study with compound 1 was conducted in patients with diabetic nephropathy. The patients were divided into two different subgroups having either macroalbuminuria (ACR>300 mg/g) or microalbuminuria (ACR 30-300 mg/g), and each subgroup were treated with 0.3 mg of compound 1/kg daily or 0.625 mg of compound 1/kg daily for 4 weeks."}},
  "note": "Entries after “also recorded” stand apart in the source; their conditions may differ.",
  "data": [
    {"smiles": "O=C(O)CC/C=C\\C[C@@H]1CO[C@H](c2ccccc2Cl)O[C@@H]1c1ccccc1O", "note": "[compound 1, (Z)-6-((2S,4S,5R)-2-(2-chlorophenyl)-4-(2-hydroxyphenyl)-1,3-dioxan-cis-5-yl) hex-4-enoic acid]", "values": [
      {"measurement": "urine concentration of sTNFR2 corrected for urine creatinine", "setting": "[1]; 0 weeks (baseline)", "value": 4561, "unit": "pg/mg"},
      {"measurement": "urine concentration of sTNFR2 corrected for urine creatinine", "setting": "[1]; 4 weeks", "value": 3302, "unit": "pg/mg"},
      {"measurement": "urine concentration of sTNFR2 corrected for urine creatinine", "setting": "[1]; 7 weeks", "value": 3264, "unit": "pg/mg"},
      {"measurement": "change in urine TNFR2-to-creatinine from baseline versus placebo (FIG. 3)", "setting": "[1]; Px-UNx rats, 3 mg/kg, p.o., 4 and 7 weeks", "value": "decreasing levels of TNFR2 but much less compared to the placebo control group"},
      {"measurement": "urine concentration of sTNFR1 corrected for urine creatinine", "setting": "[2]; Group 3, Px-UNx rats, 1 mg/kg orally once daily, 0 weeks (baseline)", "value": 243.38, "unit": "pg/mg"},
      {"measurement": "urine concentration of sTNFR1 corrected for urine creatinine", "setting": "[2]; Group 3, Px-UNx rats, 1 mg/kg orally once daily, 4 weeks", "value": 373.28, "unit": "pg/mg"},
      {"measurement": "urine concentration of sTNFR1 corrected for urine creatinine", "setting": "[2]; Group 3, Px-UNx rats, 1 mg/kg orally once daily, 7 weeks", "value": 345.46, "unit": "pg/mg"},
      {"measurement": "urine concentration of sTNFR1 corrected for urine creatinine", "setting": "[2]; Group 4, Px-UNx rats, 3 mg/kg orally once daily, 0 weeks (baseline)", "value": 236.29, "unit": "pg/mg"},
      {"measurement": "urine concentration of sTNFR1 corrected for urine creatinine", "setting": "[2]; Group 4, Px-UNx rats, 3 mg/kg orally once daily, 4 weeks", "value": 313.80, "unit": "pg/mg"},
      {"measurement": "urine concentration of sTNFR1 corrected for urine creatinine", "setting": "[2]; Group 4, Px-UNx rats, 3 mg/kg orally once daily, 7 weeks", "value": 369.65, "unit": "pg/mg"},
      {"measurement": "urine concentration of sTNFR1 corrected for urine creatinine", "setting": "[2]; Group 5, Px-UNx rats, 10 mg/kg orally once daily, 0 weeks (baseline)", "value": 220.27, "unit": "pg/mg"},
      {"measurement": "urine concentration of sTNFR1 corrected for urine creatinine", "setting": "[2]; Group 5, Px-UNx rats, 10 mg/kg orally once daily, 4 weeks", "value": 348.50, "unit": "pg/mg"},
      {"measurement": "urine concentration of sTNFR1 corrected for urine creatinine", "setting": "[2]; Group 5, Px-UNx rats, 10 mg/kg orally once daily, 7 weeks", "value": 375.03, "unit": "pg/mg"},
      {"measurement": "corrected urine sTNFR1 level versus placebo group", "setting": "[2]; Px-UNx rats, 1, 3, 10 mg/kg, 4 and 7 weeks, compared with Px-UNx placebo", "value": "capable of decreasing the level of sTNFR1; also recorded: consistently below the values for the placebo group"},
      {"measurement": "difference in sTNFR1 effect between dosage levels", "setting": "[2]; Px-UNx rats, 1, 3 or 10 mg/kg", "value": "no statistically significant difference between dosage levels"},
      {"measurement": "change in urine sTNFR1 from baseline versus placebo (FIG. 2)", "setting": "[2]; Px-UNx rats, pooled doses, 7-week period", "value": "significantly less than for the placebo control group"},
      {"measurement": "urine sTNFR1 corrected for creatinine, pooled data from Table 2", "setting": "[2]; 0 weeks (baseline)", "value": 233.3, "unit": "pg/mg"},
      {"measurement": "urine sTNFR1 corrected for creatinine, pooled data from Table 2", "setting": "[2]; 4 weeks", "value": 345.2, "unit": "pg/mg"},
      {"measurement": "urine sTNFR1 corrected for creatinine, pooled data from Table 2", "setting": "[2]; 7 weeks", "value": 363.4, "unit": "pg/mg"},
      {"measurement": "difference in ACR effect between the two doses", "setting": "[3]; 0.3 vs 0.625 mg/kg daily, each subgroup, 4 weeks", "value": "No statistic significant difference between the two doses"},
      {"measurement": "ACR reduction in macroalbuminuria versus microalbuminuria sub-group", "setting": "[3]; 4 weeks, doses pooled", "value": "statistic significant higher reduction in ACR"},
      {"measurement": "Average baseline ACR", "setting": "[3]; Macroalbuminuria (ACR>300 mg/g) patients, n = 11, baseline", "value": 691, "unit": "mg/g"},
      {"measurement": "ACR reduction (%)", "setting": "[3]; Macroalbuminuria patients, n = 11, 4 weeks vs baseline, doses pooled", "value": 26.2, "unit": "%"},
      {"measurement": "Average ACR (4 weeks)", "setting": "[3]; Macroalbuminuria patients, n = 11, after 4 weeks", "value": 510, "unit": "mg/g"},
      {"measurement": "Average baseline ACR", "setting": "[3]; Microalbuminuria (ACR 30-300 mg/g) patients, n = 38, baseline", "value": 91.8, "unit": "mg/g"},
      {"measurement": "ACR reduction (%)", "setting": "[3]; Microalbuminuria patients, n = 38, 4 weeks vs baseline, doses pooled", "value": 20.9, "unit": "%"},
      {"measurement": "Average ACR (4 weeks)", "setting": "[3]; Microalbuminuria patients, n = 38, after 4 weeks", "value": 72.6, "unit": "mg/g"},
      {"measurement": "reduction in ACR from baseline", "setting": "[3]; both subgroups (micro- and macroalbuminuria), 4 weeks", "value": "statistically significant reduction in ACR"}
    ]}
  ]
}
